Experimental data taken from patent publication US6339045B1, “N-(unsubstituted or substituted)-4-substituted-6-(unsubstituted or substituted)phenoxy-2-pyridinecarboxamides or thiocarboxamides, processes for producing the same, and herbicides” (Kureha Kagaku Kogyo Kabushiki Kaisha, priority 1995, dated 2002).

How the values were obtained:
Assay in all cases: Herbicidal effect by foliage and soil treatment
Assay type in all cases: in vivo
Conditions in all cases: 10 g ai/10a, evaluated after 14 days
[1] = system: velvetleaf (Abutilon theophrasti)
Summary of the method: (§1)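 Greenhouse pot test at 19–25 °C: spray of aqueous Tween 20 formulation onto foliage and soil of seedlings at cotyledonal–bifoliate stage, dose per area predetermined. Scoring on a rating scale after 14 days versus untreated.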

[2] = system: wild chamomile (Matricaria chamomilla)
Summary of the method: as §1

[3] = system: field bindweed (Convolvulus arvensis)
Summary of the method: as §1

[4] = system: redroot pigweed (Amaranthus retroflexus)
Summary of the method: as §1

[5] = system: kediock (Sinapis arvensis)
Summary of the method: as §1

[6] = system: common chickweed (Stellaria media)
Summary of the method: as §1

[7] = system: sicklepod (Cassia obtusifolia)
Summary of the method: as §1

[8] = system: cleavers (Galium aparine)
Summary of the method: as §1

[9] = system: black nightshade (Solanum nigrum)
Summary of the method: as §1

[10] = system: ivyleafspeedwell (Veronica hederaefolia)
Summary of the method: as §1

[11] = system: common blackjack (Bidens pilosa)
Summary of the method: as §1

Structure (SMILES)	herbicidal activity rating, AT (Abutilon theophrasti) [1]	herbicidal activity rating, MC (Matricaria chamomilla) [2]	herbicidal activity rating, CA (Convolvulus arvensis) [3]	herbicidal activity rating, AR (Amaranthus retroflexus) [4]	herbicidal activity rating, SA (Sinapis arvensis) [5]	herbicidal activity rating, SM (Stellaria media) [6]	herbicidal activity rating, CO (Cassia obtusifolia) [7]	herbicidal activity rating, GA (Galium aparine) [8]	herbicidal activity rating, SN (Solanum nigrum) [9]	herbicidal activity rating, VH (Veronica hederaefolia) [10]	herbicidal activity rating, BP (Bidens pilosa) [11]
COc1cc(Oc2cccc(OC(F)(F)F)c2)nc(C(=O)NC(C)C)c1 [Compound I-39]	5 (percentage of weeds killed was not less than 80%)	4 (percentage of weeds killed was not less than 60% and less than 80%)	5 (percentage of weeds killed was not less than 80%)	5 (percentage of weeds killed was not less than 80%)	5 (percentage of weeds killed was not less than 80%)	5 (percentage of weeds killed was not less than 80%)	5 (percentage of weeds killed was not less than 80%)	5 (percentage of weeds killed was not less than 80%)	5 (percentage of weeds killed was not less than 80%)	5 (percentage of weeds killed was not less than 80%)	3 (percentage of weeds killed was not less than 40% and less than 60%)
CCC(C)NC(=O)c1cc(OC)cc(Oc2cccc(C(F)(F)F)c2)n1 (stereo not shown) [Compound I-73]	5 (percentage of weeds killed was not less than 80%)	4 (percentage of weeds killed was not less than 60% and less than 80%)	5 (percentage of weeds killed was not less than 80%)	5 (percentage of weeds killed was not less than 80%)	5 (percentage of weeds killed was not less than 80%)	5 (percentage of weeds killed was not less than 80%)	5 (percentage of weeds killed was not less than 80%)	5 (percentage of weeds killed was not less than 80%)	5 (percentage of weeds killed was not less than 80%)	5 (percentage of weeds killed was not less than 80%)	4 (percentage of weeds killed was not less than 60% and less than 80%)
CCCNC(=O)c1cccc(Oc2cccc(C(F)(F)F)c2)n1 [control (b)]	3 (percentage of weeds killed was not less than 40% and less than 60%)	1 (percentage of weeds killed was less than 20%)	2 (percentage of weeds killed was not less than 20% and less than 40%)	5 (percentage of weeds killed was not less than 80%)	5 (percentage of weeds killed was not less than 80%)	4 (percentage of weeds killed was not less than 60% and less than 80%)	3 (percentage of weeds killed was not less than 40% and less than 60%)	5 (percentage of weeds killed was not less than 80%)	5 (percentage of weeds killed was not less than 80%)	5 (percentage of weeds killed was not less than 80%)	1 (percentage of weeds killed was less than 20%)
CNC(=S)c1cc(OC)cc(Oc2cccc(C(F)(F)F)c2)n1 [Compound I-47]	5 (percentage of weeds killed was not less than 80%)	3 (percentage of weeds killed was not less than 40% and less than 60%)	5 (percentage of weeds killed was not less than 80%)	5 (percentage of weeds killed was not less than 80%)	5 (percentage of weeds killed was not less than 80%)	4 (percentage of weeds killed was not less than 60% and less than 80%)	5 (percentage of weeds killed was not less than 80%)	5 (percentage of weeds killed was not less than 80%)	5 (percentage of weeds killed was not less than 80%)	5 (percentage of weeds killed was not less than 80%)	3 (percentage of weeds killed was not less than 40% and less than 60%)
CNc1cc(Oc2cccc(C(F)(F)F)c2)nc(C(=O)NC(C)C)c1 [Compound I-56, N-(i-propyl)-4-methylamino-6-{3-(trifluoromethyl)phenoxy}-2-pyridine carboxamide]	5 (percentage of weeds killed was not less than 80%)	4 (percentage of weeds killed was not less than 60% and less than 80%)	5 (percentage of weeds killed was not less than 80%)	5 (percentage of weeds killed was not less than 80%)	5 (percentage of weeds killed was not less than 80%)	4 (percentage of weeds killed was not less than 60% and less than 80%)	4 (percentage of weeds killed was not less than 60% and less than 80%)	5 (percentage of weeds killed was not less than 80%)	5 (percentage of weeds killed was not less than 80%)	5 (percentage of weeds killed was not less than 80%)	4 (percentage of weeds killed was not less than 60% and less than 80%)
CNC(=O)c1cc(OC)cc(Oc2cccc(C(F)(F)F)c2)n1 [Compound I-46]	4 (percentage of weeds killed was not less than 60% and less than 80%)	3 (percentage of weeds killed was not less than 40% and less than 60%)	5 (percentage of weeds killed was not less than 80%)	5 (percentage of weeds killed was not less than 80%)	5 (percentage of weeds killed was not less than 80%)	5 (percentage of weeds killed was not less than 80%)	5 (percentage of weeds killed was not less than 80%)	5 (percentage of weeds killed was not less than 80%)	5 (percentage of weeds killed was not less than 80%)	5 (percentage of weeds killed was not less than 80%)	3 (percentage of weeds killed was not less than 40% and less than 60%)
COc1cc(Oc2cccc(C(F)(F)F)c2)nc(C(=O)NCCCSC)c1 [Compound I-76]	3 (percentage of weeds killed was not less than 40% and less than 60%)	5 (percentage of weeds killed was not less than 80%)	3 (percentage of weeds killed was not less than 40% and less than 60%)	5 (percentage of weeds killed was not less than 80%)	5 (percentage of weeds killed was not less than 80%)	4 (percentage of weeds killed was not less than 60% and less than 80%)	5 (percentage of weeds killed was not less than 80%)	5 (percentage of weeds killed was not less than 80%)	5 (percentage of weeds killed was not less than 80%)	5 (percentage of weeds killed was not less than 80%)	4 (percentage of weeds killed was not less than 60% and less than 80%)
COc1cc(Oc2cccc(C(F)(F)F)c2)nc(C(=O)NCCS(C)(=O)=O)c1 [Compound I-63]	4 (percentage of weeds killed was not less than 60% and less than 80%)	4 (percentage of weeds killed was not less than 60% and less than 80%)	5 (percentage of weeds killed was not less than 80%)	5 (percentage of weeds killed was not less than 80%)	5 (percentage of weeds killed was not less than 80%)	5 (percentage of weeds killed was not less than 80%)	5 (percentage of weeds killed was not less than 80%)	5 (percentage of weeds killed was not less than 80%)	5 (percentage of weeds killed was not less than 80%)	5 (percentage of weeds killed was not less than 80%)	4 (percentage of weeds killed was not less than 60% and less than 80%)
